The supplement of paper PMC10307832

Key:
Experiment in all cases: relative viability (nuclei count vs DMSO), 5 days (fraction); higher = more cells survive
[1] = compound: CC1=CN2C(=O)C=C(N=C2C(=C1)C(C)NC3=CC=CC=C3)N4CCOCC4 [TGX 221] + COc1cccc2cc(-c3nc([C@H]4CC[C@H](C(=O)O)CC4)n4ncnc(N)c34)[nH]c12 [OSI-027] (partner 0.5 µM)
Outline: (§1)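 Dosing by pin tool came one day after lung cancer cell lines were seeded in 1536-well plates, using either one drug or a fixed anchor-drug dose plus five library-drug doses (not always all listed) in √10 steps. After 5 days, nuclei were counted on 4× images. Relative viability is treated-well nuclei count divided by vehicle-well nuclei count, and values are medians of duplicate plates.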

[2] = compound: O=C(CCCCCCNC(=O)c1cnc(N(c2ccccc2)c2ccccc2)nc1)NO [Ricolinostat] + CS(=O)(=O)N1CCN(Cc2cc3nc(-c4cccc5[nH]ncc45)nc(N4CCOCC4)c3s2)CC1 [Pictilisib] (partner 1 µM)
Outline: as §1

[3] = compound: O=C(CCCCCCNC(=O)c1cnc(N(c2ccccc2)c2ccccc2)nc1)NO [Ricolinostat] + CC(=O)c1c(C)c2cnc(Nc3ccc(N4CCNCC4)cn3)nc2n(C2CCCC2)c1=O [Palbociclib] (partner 0.5 µM)
Outline: as §1

[4] = compound: O=C(CCCCCCNC(=O)c1cnc(N(c2ccccc2)c2ccccc2)nc1)NO [Ricolinostat] + COc1cc2c(Oc3ccc(NC(=O)C4(C(=O)Nc5ccc(F)cc5)CC4)cc3F)ccnc2cc1OCCCN1CCOCC1 [Foretinib] (partner 0.25 µM)
Outline: as §1

## NCI-H2170
[1]; first compound 0.08 µM
  relative viability: 0.717
[1]; first compound 0.253 µM
  relative viability: 0.737
[1]; first compound 0.8 µM
  relative viability: 0.681
[1]; first compound 2.53 µM
  relative viability: 0.66
[1]; first compound 8 µM
  relative viability: 0.712
[2]; first compound 0.08 µM
  relative viability: 0.27
[2]; first compound 0.253 µM
  relative viability: 0.315
[2]; first compound 0.8 µM
  relative viability: 0.355
[2]; first compound 2.53 µM
  relative viability: 0.287
[3]; first compound 0.08 µM
  relative viability: 0.388
[3]; first compound 0.253 µM
  relative viability: 0.405
[3]; first compound 0.8 µM
  relative viability: 0.385
[3]; first compound 2.53 µM
  relative viability: 0.354
[4]; first compound 0.08 µM
  relative viability: 0.915
[4]; first compound 0.253 µM
  relative viability: 0.973
[4]; first compound 0.8 µM
  relative viability: 0.983
[4]; first compound 2.53 µM
  relative viability: 1.01

## NCI-H2228
[1]; first compound 0.08 µM
  relative viability: 0.654
[1]; first compound 0.253 µM
  relative viability: 0.522
[1]; first compound 0.8 µM
  relative viability: 0.638
[1]; first compound 2.53 µM
  relative viability: 0.453
[1]; first compound 8 µM
  relative viability: 0.463
[2]; first compound 0.08 µM
  relative viability: 0.309
[2]; first compound 0.253 µM
  relative viability: 0.407
[2]; first compound 0.8 µM
  relative viability: 0.355
[2]; first compound 2.53 µM
  relative viability: 0.24
[3]; first compound 0.08 µM
  relative viability: 0.874
[3]; first compound 0.253 µM
  relative viability: 0.895
[3]; first compound 0.8 µM
  relative viability: 0.9
[3]; first compound 2.53 µM
  relative viability: 0.504
[4]; first compound 0.08 µM
  relative viability: 0.754
[4]; first compound 0.253 µM
  relative viability: 1.04
[4]; first compound 0.8 µM
  relative viability: 0.783
[4]; first compound 2.53 µM
  relative viability: 0.738

## NCI-H2347
[1]; first compound 0.08 µM
  relative viability: 0.463
[1]; first compound 0.253 µM
  relative viability: 0.321
[1]; first compound 0.8 µM
  relative viability: 0.376
[1]; first compound 2.53 µM
  relative viability: 0.29
[1]; first compound 8 µM
  relative viability: 0.296
[2]; first compound 0.08 µM
  relative viability: 0.451
[2]; first compound 0.253 µM
  relative viability: 0.628
[2]; first compound 0.8 µM
  relative viability: 0.884
[2]; first compound 2.53 µM
  relative viability: 0.644
[3]; first compound 0.08 µM
  relative viability: 0.487
[3]; first compound 0.253 µM
  relative viability: 0.371
[3]; first compound 0.8 µM
  relative viability: 0.294
[3]; first compound 2.53 µM
  relative viability: 0.408
[4]; first compound 0.253 µM
  relative viability: 1.04
[4]; first compound 0.8 µM
  relative viability: 0.792
[4]; first compound 2.53 µM
  relative viability: 0.802

## NCI-H2405
[1]; first compound 0.08 µM
  relative viability: 0.609
[1]; first compound 0.253 µM
  relative viability: 0.627
[1]; first compound 0.8 µM
  relative viability: 0.664
[1]; first compound 2.53 µM
  relative viability: 0.658
[1]; first compound 8 µM
  relative viability: 0.589
[2]; first compound 0.08 µM
  relative viability: 0.389
[2]; first compound 0.253 µM
  relative viability: 0.494
[2]; first compound 0.8 µM
  relative viability: 0.412
[2]; first compound 2.53 µM
  relative viability: 0.277
[3]; first compound 0.08 µM
  relative viability: 0.517
[3]; first compound 0.253 µM
  relative viability: 0.554
[3]; first compound 0.8 µM
  relative viability: 0.542
[3]; first compound 2.53 µM
  relative viability: 0.571
[4]; first compound 0.08 µM
  relative viability: 0.927
[4]; first compound 0.253 µM
  relative viability: 1.05
[4]; first compound 0.8 µM
  relative viability: 1.07
[4]; first compound 2.53 µM
  relative viability: 1.11

## NCI-H3122
[1]; first compound 0.08 µM
  relative viability: 0.874
[1]; first compound 0.253 µM
  relative viability: 0.929
[1]; first compound 0.8 µM
  relative viability: 1
[1]; first compound 2.53 µM
  relative viability: 0.864
[1]; first compound 8 µM
  relative viability: 0.963
[2]; first compound 0.08 µM
  relative viability: 0.533
[2]; first compound 0.253 µM
  relative viability: 0.606
[2]; first compound 0.8 µM
  relative viability: 0.696
[2]; first compound 2.53 µM
  relative viability: 0.866
[3]; first compound 0.08 µM
  relative viability: 0.149
[3]; first compound 0.253 µM
  relative viability: 0.208
[3]; first compound 0.8 µM
  relative viability: 0.186
[3]; first compound 2.53 µM
  relative viability: 0.235
[4]; first compound 0.08 µM
  relative viability: 0.98
[4]; first compound 0.253 µM
  relative viability: 0.959
[4]; first compound 0.8 µM
  relative viability: 1.08
[4]; first compound 2.53 µM
  relative viability: 1.13

## PC-3 [JPC-3]
[1]; first compound 0.08 µM
  relative viability: 0.756
[1]; first compound 0.253 µM
  relative viability: 0.775
[1]; first compound 0.8 µM
  relative viability: 0.788
[1]; first compound 2.53 µM
  relative viability: 0.751
[1]; first compound 8 µM
  relative viability: 0.806
[2]; first compound 0.08 µM
  relative viability: 0.669
[2]; first compound 0.253 µM
  relative viability: 0.808
[2]; first compound 0.8 µM
  relative viability: 0.673
[2]; first compound 2.53 µM
  relative viability: 0.456
[3]; first compound 0.08 µM
  relative viability: 0.533
[3]; first compound 0.253 µM
  relative viability: 0.499
[3]; first compound 0.8 µM
  relative viability: 0.518
[3]; first compound 2.53 µM
  relative viability: 0.487
[4]; first compound 0.253 µM
  relative viability: 0.933
[4]; first compound 0.8 µM
  relative viability: 0.969
[4]; first compound 2.53 µM
  relative viability: 0.827

## PC-14
[1]; first compound 0.08 µM
  relative viability: 0.707
[1]; first compound 0.253 µM
  relative viability: 0.791
[1]; first compound 0.8 µM
  relative viability: 0.908
[1]; first compound 2.53 µM
  relative viability: 1.05
[1]; first compound 8 µM
  relative viability: 0.654
[2]; first compound 0.08 µM
  relative viability: 0.536
[2]; first compound 0.253 µM
  relative viability: 0.681
[2]; first compound 0.8 µM
  relative viability: 0.653
[2]; first compound 2.53 µM
  relative viability: 0.321
[3]; first compound 0.08 µM
  relative viability: 0.57
[3]; first compound 0.253 µM
  relative viability: 0.478
[3]; first compound 0.8 µM
  relative viability: 0.462
[3]; first compound 2.53 µM
  relative viability: 0.406
[4]; first compound 0.08 µM
  relative viability: 0.954
[4]; first compound 0.253 µM
  relative viability: 0.898
[4]; first compound 0.8 µM
  relative viability: 0.892
[4]; first compound 2.53 µM
  relative viability: 0.828

## RERF-LC-KJ
[1]; first compound 0.08 µM
  relative viability: 0.567
[1]; first compound 0.253 µM
  relative viability: 0.598
[1]; first compound 0.8 µM
  relative viability: 0.593
[1]; first compound 2.53 µM
  relative viability: 0.574
[1]; first compound 8 µM
  relative viability: 0.534
[2]; first compound 0.08 µM
  relative viability: 0.755
[2]; first compound 0.253 µM
  relative viability: 0.637
[2]; first compound 0.8 µM
  relative viability: 0.422
[2]; first compound 2.53 µM
  relative viability: 0.467
[3]; first compound 0.08 µM
  relative viability: 1.02
[3]; first compound 0.253 µM
  relative viability: 1.21
[3]; first compound 0.8 µM
  relative viability: 1.25
[3]; first compound 2.53 µM
  relative viability: 0.902
[4]; first compound 0.08 µM
  relative viability: 0.842
[4]; first compound 0.253 µM
  relative viability: 0.795
[4]; first compound 0.8 µM
  relative viability: 0.88
[4]; first compound 2.53 µM
  relative viability: 0.802

## SK-LU-1
[1]; first compound 0.08 µM
  relative viability: 0.31
[1]; first compound 0.253 µM
  relative viability: 0.331
[1]; first compound 0.8 µM
  relative viability: 0.288
[1]; first compound 2.53 µM
  relative viability: 0.273
[1]; first compound 8 µM
  relative viability: 0.298
[2]; first compound 0.08 µM
  relative viability: 0.478
[2]; first compound 0.253 µM
  relative viability: 0.469
[2]; first compound 0.8 µM
  relative viability: 0.423
[2]; first compound 2.53 µM
  relative viability: 0.485
[3]; first compound 0.08 µM
  relative viability: 0.4
[3]; first compound 0.253 µM
  relative viability: 0.377
[3]; first compound 0.8 µM
  relative viability: 0.377
[3]; first compound 2.53 µM
  relative viability: 0.366
[4]; first compound 0.08 µM
  relative viability: 0.739
[4]; first compound 0.253 µM
  relative viability: 0.908
[4]; first compound 0.8 µM
  relative viability: 0.772
[4]; first compound 2.53 µM
  relative viability: 0.722

## SK-MES-1
[1]; first compound 0.08 µM
  relative viability: 0.552
[1]; first compound 0.253 µM
  relative viability: 0.53
[1]; first compound 0.8 µM
  relative viability: 0.592
[1]; first compound 2.53 µM
  relative viability: 0.532
[1]; first compound 8 µM
  relative viability: 0.473
[2]; first compound 0.08 µM
  relative viability: 0.277
[2]; first compound 0.253 µM
  relative viability: 0.34
[2]; first compound 0.8 µM
  relative viability: 0.304
[2]; first compound 2.53 µM
  relative viability: 0.293
[3]; first compound 0.08 µM
  relative viability: 0.369
[3]; first compound 0.253 µM
  relative viability: 0.308
[3]; first compound 0.8 µM
  relative viability: 0.339
[3]; first compound 2.53 µM
  relative viability: 0.397
[4]; first compound 0.08 µM
  relative viability: 0.782
[4]; first compound 0.253 µM
  relative viability: 0.946
[4]; first compound 0.8 µM
  relative viability: 0.928
[4]; first compound 2.53 µM
  relative viability: 0.917

## SW 1573
[1]; first compound 0.08 µM
  relative viability: 0.511
[1]; first compound 0.253 µM
  relative viability: 0.569
[1]; first compound 0.8 µM
  relative viability: 0.525
[1]; first compound 2.53 µM
  relative viability: 0.513
[1]; first compound 8 µM
  relative viability: 0.494
[2]; first compound 0.08 µM
  relative viability: 0.454
[2]; first compound 0.253 µM
  relative viability: 0.504
[2]; first compound 0.8 µM
  relative viability: 0.542
[2]; first compound 2.53 µM
  relative viability: 0.475
[3]; first compound 0.08 µM
  relative viability: 0.387
[3]; first compound 0.253 µM
  relative viability: 0.434
[3]; first compound 0.8 µM
  relative viability: 0.337
[3]; first compound 2.53 µM
  relative viability: 0.357
[4]; first compound 0.08 µM
  relative viability: 0.863
[4]; first compound 0.253 µM
  relative viability: 1.12
[4]; first compound 0.8 µM
  relative viability: 0.899
[4]; first compound 2.53 µM
  relative viability: 0.918

## UMC-11
[1]; first compound 0.08 µM
  relative viability: 0.502
[1]; first compound 0.253 µM
  relative viability: 0.438
[1]; first compound 0.8 µM
  relative viability: 0.482
[1]; first compound 2.53 µM
  relative viability: 0.458
[1]; first compound 8 µM
  relative viability: 0.456
[2]; first compound 0.08 µM
  relative viability: 0.645
[2]; first compound 0.253 µM
  relative viability: 0.859
[2]; first compound 0.8 µM
  relative viability: 0.723
[2]; first compound 2.53 µM
  relative viability: 0.24
[3]; first compound 0.08 µM
  relative viability: 0.368
[3]; first compound 0.253 µM
  relative viability: 0.338
[3]; first compound 0.8 µM
  relative viability: 0.339
[3]; first compound 2.53 µM
  relative viability: 0.295
[4]; first compound 0.08 µM
  relative viability: 1.13
[4]; first compound 0.253 µM
  relative viability: 1.07
[4]; first compound 0.8 µM
  relative viability: 0.864
[4]; first compound 2.53 µM
  relative viability: 0.504
